Data: ChEMBL document CHEMBL1201862, “PubChem BioAssay data set” (2004)
Calls of active or inactive are those of the source.

Assays:
HEK293 = assay: EBV LMP1 TES2 canonical NF-kB signalling blockers – cell-based, HEK293, luciferase, cherry-pick, dose response (AID 588343); assay type: functional; details: Homo sapiens
cells [1] = assay type: functional, cell-based
[2] = target: T1, Nuclear receptor subfamily 0 group B member 1 (Homo sapiens, UniProt P51843); assay type: functional, cell-based;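 note: HEK293T cells transfected with SF-1 and DAX-1 plus StAR promoter luciferase reporter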
T1 sequence (P51843 whole entry): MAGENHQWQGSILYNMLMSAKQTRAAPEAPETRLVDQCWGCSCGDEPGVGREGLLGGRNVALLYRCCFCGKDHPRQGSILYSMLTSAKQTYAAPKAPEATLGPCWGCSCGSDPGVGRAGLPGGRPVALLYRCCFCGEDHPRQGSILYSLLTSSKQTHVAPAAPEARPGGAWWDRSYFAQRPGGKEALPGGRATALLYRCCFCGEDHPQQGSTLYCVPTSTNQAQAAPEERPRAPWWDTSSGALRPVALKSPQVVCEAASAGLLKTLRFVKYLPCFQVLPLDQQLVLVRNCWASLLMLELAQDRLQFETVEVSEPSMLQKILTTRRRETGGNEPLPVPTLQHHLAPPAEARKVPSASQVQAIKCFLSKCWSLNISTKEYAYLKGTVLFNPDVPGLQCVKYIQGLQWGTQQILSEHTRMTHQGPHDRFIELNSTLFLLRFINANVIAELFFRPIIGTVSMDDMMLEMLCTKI

[3] = NIH-3T3 fibroblast cytotoxicity, dose response, cytotoxicity control, cell-based, fluorescence, Alamar Blue, secondary assay (AID 2327); assay type: functional;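 note: NIH-3T3 mouse fibroblasts cultured with fluconazole at 8 µg/mL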
[4] = fluconazole-exposed Candida albicans growth modulators – fluorescence, retest, confirmation (AID 2467); assay type: functional, cell-based
[5] = target: Luciferin 4-monooxygenase (Photinus pyralis, UniProt P08659); assay: inhibition of purified Photinus pyralis luciferase – biochemical, luminescence, dose response (AID 1891)
Luciferin 4-monooxygenase, sequence (P08659 whole entry): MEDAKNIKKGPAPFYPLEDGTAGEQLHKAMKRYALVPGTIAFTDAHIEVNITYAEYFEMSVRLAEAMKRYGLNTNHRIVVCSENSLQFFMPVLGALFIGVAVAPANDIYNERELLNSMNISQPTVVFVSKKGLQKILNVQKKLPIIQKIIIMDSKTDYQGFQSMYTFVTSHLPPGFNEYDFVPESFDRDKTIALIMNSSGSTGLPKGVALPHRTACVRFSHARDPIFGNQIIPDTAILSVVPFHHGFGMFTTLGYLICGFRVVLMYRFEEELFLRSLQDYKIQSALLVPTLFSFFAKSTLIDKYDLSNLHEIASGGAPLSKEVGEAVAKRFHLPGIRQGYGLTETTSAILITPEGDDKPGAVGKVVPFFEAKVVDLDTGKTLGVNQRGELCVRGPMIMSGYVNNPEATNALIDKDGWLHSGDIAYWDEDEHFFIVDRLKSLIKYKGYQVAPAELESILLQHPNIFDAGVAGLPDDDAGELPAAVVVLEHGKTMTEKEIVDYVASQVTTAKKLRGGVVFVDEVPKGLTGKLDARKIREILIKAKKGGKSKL

[6] = Luminescence Cell-Based Dose Confirmation HTS to Identify Inhibitors of Platelet Dense Granule Release. [Related pubchem assays: 1663 (Primary HTS), 1678 (Summary of Project)]; assay type: functional
[7] = Luminescence Cell-Based Dose Retest to Confirm Inhibitors of Cancer Stem Cells. [Related pubchem assays (depositor defined):AID2717, AID2721]; assay type: functional; details: Homo sapiens
[8] = THP-1 cell cytotoxicity, dose response, cytotoxicity control for non-replicating M. tuberculosis project (AID 489025); assay type: functional
[9] = Vero E6 cell cytotoxicity, dose response, cytotoxicity control for non-replicating M. tuberculosis project, secondary assay (AID 492998); assay type: functional, VeroE6; details: Vero C1008
cells [10] = assay type: functional
[11] = A549 cell cytotoxicity, dose response, cytotoxicity control, plate reader, cherry-pick, antagonist series (AID 743412); assay type: functional, cell-based
[12] = toxicity toward HepG2 liver cells – cell-based, plate reader, cherry-pick, antagonist series, cytotoxicity control, dose response (AID 743416); assay type: functional
[13] = blockers of bursicon-stimulated LGR2 cAMP reporter – cell-based, HEK293, CRE-luciferase reporter, cherry pick, set 2, dose response (AID 743343); assay type: functional;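 note: transfected cells were stimulated with diluted bursicon conditioned medium after compound addition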
[14] = blockade of melanocortin 4 receptor signaling – cell-based, plate reader, cherry pick, counter-screen for LGR2 antagonist project, dose response (AID 743444); assay type: functional;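 note: transfected HEK 293 cells stimulated with alpha-MSH peptide; potency of inhibitors of the alpha-MSH evoked signal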
[15] = viability loss in HEK293 cells – cell-based, plate reader, cherry-picked samples, cytotoxicity control, dose response (AID 743446); assay type: functional

| SMILES | AC50 (HEK293) | IC50 (cells [1]) | IC50 [2] | EC50 [3] | EC50 [4] | EC50 [5] | EC50 [6] | AC50 [7] | CC50 [8] | CC50 [9] | IC50 (cells [10]) | AC50 [11] | AC50 [12] | AC50 [13] | AC50 [14] | AC50 [15] |
| --- | --- | --- | --- | --- | --- | --- | --- | --- | --- | --- | --- | --- | --- | --- | --- | --- |
| O=C(O)c1cc(/C=C/c2ccc(N3CCOCC3)cc2)nc2ccccc12 | 3.14 µM (active) | > 67.5 µM (inactive) | > 67.5 µM (inactive) | – | – | – | – | – | – | – | – | – | – | – | – | – |
| CC(=O)Oc1ccc2c(=O)c(-c3nc4ccccc4s3)coc2c1 | – | > 67.5 µM (inactive) | > 67.5 µM (inactive) | > 150 µM (inactive) | 3.08 µM (active) | 3.63 µM (active) | 3.83 µM (active) | 6.27 µM (active) | – | – | – | – | – | – | – | – |
| Cc1cnc(NC(=O)c2ccccn2)s1 | 8.48 µM (active) | – | – | – | – | 34.9 µM (active) | 18 µM (active) | – | > 40 µM (active) | > 20 µM (active) | 4.77 µM (active) | 24 µM (active) | 27.8 µM (active) | 7.9 µM (active) | 6.72 µM (active) | 30.8 µM (active) |
